Measured values reported in patent publication US20050101633A1, “Remedial agent for myelopathic disease” (priority 2001, published 2005).

Key:
[1] = system: spinal cord injury model in rats; conditions: reported in Brain Research, 799, 264-269 (1998); cited from earlier work
[2] = system: rat spinal cord injury model; experiment: Improvement of dyskinesia, open field walking scale after spinal cord injury; format: in vivo; conditions: 50 mg/kg injected 15 min before SCI; compression injury with 20-g weight; up to 28 days; FIG. 4
Experimental: (§1) SCI was induced 15 min after injection of test compound (50 mg/kg). Dyskinesia was assessed according to an open field walking scale (Behrmann et al., Exp. Neurol. 126, 61-75 (1994)) and an inclined-plane test (Rivlin et al., J. Neurosurg. 47, 577-581 (1977)) using rats subjected to compression injury with a 20-g weight. In the open field walking scale, animals were scored from 0 (no spontaneous movement) to 5 (normal gait) based on 5 min of observation. With the scale, the animal's capability for gross hindlimb movement was evaluated before SCI, every 2 days afterward for 2 weeks beginning on the first day, and later at 21 and 28 days after injury. In the inclined-plane test, a cork mat was fixed to the surface of a movable inclined plane. We recorded the maximal angle of inclined-plane at which the rat could maintain position for […]. This was evaluated before and at 1, 7, 14, 21 and 28 days after injury.

[3] = system: blood-CNS barrier; experiment: Blood-CNS barrier disruption (Evans blue dye) after spinal cord injury; format: in vivo, rat; conditions: 50 mg/kg injected 15 min before SCI; Evans blue at 6 h after SCI; FIG. 3
Experimental: Disruption of the blood-CNS barrier was assessed according to the method of Uyama et al. [J. Cereb. Blood Flow Metab. 8, 282-284 (1988)] with certain modifications. SCI was induced 15 min after injection of test compound (50 mg/kg). At 6 h after SCI, 4 mL/kg of 2.5% Evans blue dye solution was administered via the femoral vein. One hour later rats were anesthetized by pentobarbital (40 mg/kg) and killed. The T13 spinal cord segment was removed and homogenized in 1 mL of 50% trichloroacetic acid (w/v). After centrifugation the extracted dye was diluted fourfold with ethanol, and its fluorescence was quantified using a spectrophotometer at an excitation wavelength of 620 nm and an emission wavelength of 680 nm.

[4] = system: myeloperoxidase activity; experiment: Assay of myeloperoxidase (MPO) activity in T13 spinal cord segment after spinal cord injury; format: in vivo, rat; conditions: administered 15 minutes before spinal cord injury, FIG. 2
Experimental: For assessment of accumulation and infiltration of leukocytes, we measured myeloperoxidase activity according to a modification of the method of Xu et al. (J. neurochem. 55, 907-912 (1990)). The test compound was administrated 15 minutes before spinal cord injury, and then the T13 segments 2, 4, 8, 12 and 24 h after injury were sonicated in 1 mL of 50 mM potassium phosphate buffer (pH 6.0) containing 0.5% […]. The homogenates were centrifuged at 10,000×g for 20 min, and 0.1 mL of the supernatant was added to 0.6 mL of 50 mM potassium phosphate buffer (pH 6.0) containing 0.53 mM o-dianisidine dihydrochrolide and 0.15 mM H2O2. After 5 min, the change in absorbance at 460 nm was monitored with a spectrophotometer (model DU 640, Beckmann, Germany).

[5] = system: rat spinal cord injury model; experiment: Improvement of dyskinesia, inclined-plane test after spinal cord injury; format: in vivo; conditions: 50 mg/kg injected 15 min before SCI; compression injury with 20-g weight; up to 28 days; FIG. 5
Experimental: as §1

[6] = system: CINC-1 protein; experiment: Suppression of CINC-1 expression on rat spinal cord injury model; format: in vivo; conditions: Wistar rats; injected via femoral vein 15 min before spinal cord injury; T13 segment; FIG. 1
Experimental: Under anesthesia using pentobarbital (40 mg/kg of body weight), spinal cord injury model was made using Wistar rats weighing 250-300 g according to the operative procedure of Tonai et al. [J. Neurochem. 72, 302-309 (1999)]. At various time intervals after injury, the rats were frozen, and then T13 spinal cord segment was removed for analysis of CINC-1 protein.
The test compound was dissolved in physiologic saline containing 12 mM Na2CO3 and injected via the femoral vein 15 min before spinal cord injury. Saline vehicle alone was administered by the same route in control animals.

Molecule	efficacy in spinal cord injury model in rats [1]	dyskinesia after spinal cord injury, open field walking scale [2]	Blood-CNS barrier disruption [3]	myeloperoxidase activity ([4]; 4 hours after injury)	myeloperoxidase activity ([4]; 12 hours after injury)	myeloperoxidase activity ([4]; 24 hours after injury)	dyskinesia after spinal cord injury, inclined-plane test [5]	CINC-1 protein expression after spinal cord injury [6]
Eglin C	effective	–	–	–	–	–	–	–
CO[C@H]1C(=O)N2C(C(=O)N3CCC[C@H]3C(=O)O)=C(COC(C)=O)CS(=O)(=O)[C@H]12 [L 658,758]	effective	–	–	–	–	–	–	–
CC(C)(C)C(=O)Oc1ccc(S(=O)(=O)Nc2ccccc2C(=O)NCC(=O)[O-])cc1.O.O.O.O.[Na+] [compound (X), N-[o-(p-pivaloyloxybenzenesulfonylamino)benzoyl]glycine monosodium salt tetrahydrate]	–	suppressed dyskinesia after spinal cord injury significantly	suppressed Blood-CNS barrier disruption significantly	46 % of control	61 % of control	64 % of control	suppressed dyskinesia after spinal cord injury significantly	suppressed in dose-dependently
